Assay results reported in patent US8916499B2, “Herbicidal compositions comprising 4-amino-3-chloro-5-fluoro-6-(4-chloro-2-fluoro-3-methoxyphenyl) pyridine-2-carboxylic acid or a derivative thereof and a protoporphyrinogen oxidase inhibitor” (Dow AgroSciences LLC, priority 2012, dated 2014).
Values joined by “and” are separate entries in the source; they are usually repeats but may differ in a detail not shown here. Equal values may be shown once.

Columns and labels:
LEFCH [1] = experiment: In-water applied weed control, transplanted paddy rice, greenhouse (Example II); assay type: in vivo, Leptochloa chinensis (L.) Nees; conditions: g ae/ha Compound A Benzyl Ester+g ai/ha carfentrazone-ethyl: r11 8.75+0, r12 17.5+0, r13 35+0, r14 0+28, r15 8.75+28, r16 17.5+28, r17 35+28
DIGSA = experiment: Postemergence foliar-applied weed control, direct seeded rice, greenhouse (Example I); assay type: in vivo, Digitaria sanguinalis (L.) Scop.; conditions: g ae/ha Compound A Acid+g ai/ha carfentrazone-ethyl: r11 4.38+0, r12 8.75+0, r13 17.5+0, r14 0+14, r15 4.38+14, r16 8.75+14, r17 17.5+14
ECHOR = experiment: In-water applied weed control, transplanted paddy rice, greenhouse (Example II); assay type: in vivo, Echinochloa oryzoides (Ard.) Fritsch
LEFCH [2] = experiment: Postemergence foliar-applied weed control, direct seeded rice, greenhouse (Example I); assay type: in vivo, Leptochloa chinensis (L.) Nees
ECHCG [3] = experiment: as above; assay type: in vivo, Echinochloa crusgalli (L.) Beauv.
CYPIR = experiment: as above; assay type: in vivo, Cyperus iria L.; conditions: g ae/ha Compound A Benzyl Ester+g ai/ha carfentrazone-ethyl: r11 8.75+0, r12 0+3.5, r13 0+7, r14 0+14, r15 8.75+3.5, r16 8.75+7, r17 8.75+14
CYPES = experiment: as above; assay type: in vivo, Cyperus esculentus L.; conditions: g ae/ha Compound A Acid+g ai/ha carfentrazone-ethyl: r27 4.38+0, r28 8.75+0, r29 0+7, r30 0+14, r31 4.38+7, r32 8.75+7, r33 4.38+14, r34 8.75+14
ISCRU = experiment: as above; assay type: in vivo, Ischaemum rugosum Salisb.; conditions: g ae/ha Compound A Benzyl Ester+g ai/ha pyraclonil: r37 8+0, r38 16+0, r39 0+67.5, r40 0+135, r41 0+270, r42 8+67.5, r43 16+67.5, r44 8+135, r45 16+135, r46 8+270, r47 16+270
BRAPP = experiment: as above; assay type: in vivo, Brachiaria platyphylla (Griseb.) Nash; conditions: g ae/ha Compound A Acid+g ai/ha pyraclonil: r11 4.38+0, r12 0+33.75, r13 0+67.5, r14 0+135, r15 4.38+33.75, r16 4.38+67.5, r17 4.38+135
CYPRO = experiment: In-water applied weed control, transplanted paddy rice, greenhouse (Example II); assay type: in vivo, Cyperus rotundus L.; conditions: g ae/ha Compound A Benzyl Ester+g ai/ha pyraclonil: r19 4.38+0, r20 8.75+0, r21 0+45, r22 0+90, r23 4.38+45, r24 8.75+45, r25 4.38+90, r26 8.75+90
IPOHE = experiment: Postemergence foliar-applied weed control, direct seeded rice, greenhouse (Example I); assay type: in vivo, Ipomoea hederacea Jacq.
ECHCG [4] = experiment: In-water applied weed control, transplanted paddy rice, greenhouse (Example II); assay type: in vivo, Echinochloa crus-galli (L.) P. Beauv.; conditions: g ae/ha Compound A Acid+g ai/ha pyraclonil: r11 8.75+0, r12 17.5+0, r13 0+45, r14 8.75+45, r15 17.5+45

| Structure (SMILES) | Visual Weed Control (%) - 21 DAA LEFCH Obs (LEFCH [1]) [%] | Visual Weed Control (%) - 21 DAA DIGSA Obs (DIGSA) [%] | Visual Weed Control (%) - 19 DAA ECHOR Obs (ECHOR; g ae/ha Compound A Acid+g ai/ha carfentrazone-ethyl: r28 42.4+0, r29 0+215, r30 42.4+215) [%] | Visual Weed Control (%) - 19 DAA LEFCH Obs (LEFCH [2]; g ae/ha Compound A Acid+g ai/ha carfentrazone-ethyl: r39 19.4+0, r40 0+28, r41 19.4+28) [%] | Visual Weed Control (%) - 19 DAA LEFCH Obs (LEFCH [2]; g ae/ha Compound A n-Butyl Ester+g ai/ha carfentrazone-ethyl: r11 16+0, r12 0+28, r13 16+28) [%] | Visual Weed Control (%) - 21 DAA ECHCG Obs (ECHCG [3]; g ae/ha Compound A Acid+g ai/ha carfentrazone-ethyl: r11 4.38+0, r12 8.75+0, r13 17.5+0, r14 0+14, r15 4.38+14, r16 8.75+14, r17 17.5+14) [%] | Visual Weed Control (%) - 21 DAA ECHCG Obs (ECHCG [3]; g ae/ha Compound A Benzyl Ester+g ai/ha carfentrazone-ethyl: r11 8.75+0, r12 0+3.5, r13 0+7, r14 0+14, r15 8.75+3.5, r16 8.75+7, r17 8.75+14) | Visual Weed Control (%) - 21 DAA CYPIR Obs (CYPIR) [%] | Visual Weed Control (%) - 21 DAA CYPES Obs (CYPES) [%] | Visual Weed Control (%) - 21 DAA ISCRU Obs (ISCRU) [%] | Visual Weed Control (%) - 20 DAA ECHOR Obs (ECHOR; g ae/ha Compound A Benzyl Ester+g ai/ha pyraclonil: r11 4.38+0, r12 8.75+0, r13 17.5+0, r14 0+45, r15 4.38+45, r16 8.75+45, r17 17.5+45) [%] | Visual Weed Control (%) - 20 DAA BRAPP Obs (BRAPP) [%] | Visual Weed Control (%) - 20 DAA CYPRO Obs (CYPRO) [%] | Visual Weed Control (%) - 21 DAA IPOHE Obs (IPOHE; g ae/ha Compound A Acid+g ai/ha pyraclonil: r53 35+0, r54 0+270, r55 35+270) [%] | Visual Weed Control (%) - 21 DAA IPOHE Obs (IPOHE; g ae/ha Compound A Benzyl Ester+g ai/ha pyraclonil: r27 17.5+0, r28 35+0, r29 0+270, r30 17.5+270, r31 35+270) [%] | Visual Weed Control (%) - 20 DAA ECHCG Obs (ECHCG [3]; g ae/ha Compound A Acid+g ai/ha pyraclonil: r24 4.38+0, r25 8.75+0, r26 0+33.75, r27 0+67.5, r28 0+135, r29 4.38+33.75, r30 8.75+33.75, r31 4.38+67.5, r32 8.75+67.5, r33 4.38+135, r34 8.75+135) [%] | Visual Weed Control (%) - 21 DAA ECHCG Obs (ECHCG [3]; g ae/ha Compound A Acid+g ai/ha pyraclonil: r44 17.5+0, r45 35+0, r46 0+270, r47 17.5+270, r48 35+270) [%] | Visual Weed Control (%) - 20 DAA ECHCG Obs (ECHCG [4]) [%] |
| --- | --- | --- | --- | --- | --- | --- | --- | --- | --- | --- | --- | --- | --- | --- | --- | --- | --- | --- |
| CCOC(=O)C(Cl)Cc1cc(-n2nc(C)n(C(F)F)c2=O)c(F)cc1Cl (stereo not drawn) [Carfentrazone-ethyl, ethyl α,2-dichloro-5-[4-(difluoromethyl)-4,5-dihydro-3-methyl-5-oxo-1H-1,2,4-triazol-1-yl]-4-fluorobenzenepropanoate, reference compound] | 10 | 0 | 65 | 10 | 10 | 10 | 0% and 10% | 0 | 0 |  |  |  |  |  |  |  |  |  |
| C#CCN(C)c1c(C#N)cnn1-c1nn2c(c1Cl)CCCC2 [Pyraclonil, 1-(3-chloro-4,5,6,7-tetrahydropyrazolo[1,5-a]pyridin-2-yl)-5-(methyl-2-propynylamino)-1H-pyrazole-4-carbonitrile, reference compound] |  |  |  |  |  |  |  |  |  | 0 | 40 | 0 | 0 | 45 | 45 | 0 | 0 | 0 |
